Measurements reported in patent US7875343B2, “Anti-microbial carpet underlay and method of making” (L & P Property Management Company, priority 2003, dated 2011).
Like-named read-outs stand apart in the source and are kept apart here.

Experiments:
Staphylococcus aureus [1] = system: Staphylococcus aureus
Excerpt: (§1) Biocidal effectiveness of the rebonded carpet pad 12 and/or film 18 according the present invention may be determined by measuring inhibition of growth of bacterial and/or fungus using AATCC (American Association of Textile Chemists and Colorists) 174, ASTM E2180-1, and ASTM D 3273 test protocols compared to non-treated control standards. The AATCC 174 protocol was developed for determining the antimicrobial activity of new carpet materials.
(§2) A number of specimens of carpet underlay 10 were made by methods described above, with various concentrations of zinc pyrithione in the binder 16 and film 18 for testing to determine levels that provide an effective antimicrobial effect. The specimens included a film 18 on one side as illustrated in FIG. 1. This allowed testing of the foam side of the specimens to indicate antimicrobial effect of the pad 12 without film 18 and testing of the film side to indicate antimicrobial effect of the pad 12 with film 18. The AATCC 174 test method provides for testing both unwashed and washed samples. Washed samples were treated according to the AATCC 138 protocol.
(§3) The AATCC 174, Part II test provides a quantitative procedure for the evaluation of the degree of antibacterial activity. Test specimens are inoculated with the test microorganisms. After incubation, the bacteria are eluted from specimens by shaking in 100 milliliters of liquid. The number of bacteria present in the liquid is determined and the percent reduction produced by the specimen is calculated.

Klebsiella pneumoniae [2] = system: Klebsiella pneumoniae
Excerpt: as §1, §2, §3

Aspergillus niger [3] = system: Aspergillus niger
Procedure: as §1
Inhibitory mold activity was also tested by the ASTM E2180-01 test method. […] The total combined concentration is the sum of the concentration in the pad 12 of a specimen and the concentration in the film 18 of the specimen.

Staphylococcus aureus [4] = details: unwashed foam side specimen with 751 ppm of zinc pyrithione
Excerpt: as §1, §2
(§4) The AATCC 174 test method includes three parts. Part I is a qualitative test for antibacterial activity. Test specimens are placed into contact with a nutrient agar which has been streaked with a bacterial culture. The specimens are then incubated. After incubation, a clear area of interrupted growth underneath and along the sides of the test specimen indicates antibacterial activity of the specimen. Standard strains of bacteria are used, with Staphylococcus aureus and Klebsiella pneumoniae being the representative organisms.

Klebsiella pneumoniae [5] = system: Klebsiella pneumoniae; remark: listed apart in the source
Excerpt: as §1, §2, §4

Aspergillus niger [6] = details: film side specimens, total minimum combined concentration (pad + film) of about 1600 ppm
Excerpt: as §1

Aspergillus niger [7] = details: 28 degrees C., seven days
Excerpt: as §1, §2

[8] = all unwashed and washed film and foam side specimens, 500 ppm or more in the film and 1096 ppm in the pad
[9] = washed foam side specimen containing 751 ppm of zinc pyrithione
[10] = washed foam side specimen containing 1096 ppm of zinc pyrithione

SMILES: [O-]n1ccccc1=S.[O-]n1ccccc1=S.[Zn+2] [zinc pyrithione, Bis(1-hydroxy-2(1H)-pyridinethionato-O,S)-(T-4)Zinc]
- average reduction in Staphylococcus aureus (Staphylococcus aureus [1]; [8]): 92%
- reduction in Staphylococcus aureus (minimum over specimens) (Staphylococcus aureus [1]; [8]): at least 66%
- reduction in the numbers of Staphylococcus aureus (Staphylococcus aureus [1]; [9]): 90%
- reduction in the numbers of Staphylococcus aureus (Staphylococcus aureus [1]; [10]): 90%
- reduction in the numbers of Klebsiella pneumoniae (Klebsiella pneumoniae [2]; [9]): 90%
- reduction in the numbers of Klebsiella pneumoniae (Klebsiella pneumoniae [2]; [10]): 90%
- inhibitory activity for Aspergillus niger (Aspergillus niger [3]; film side specimens, total minimum combined concentration (pad + film) of 1600 ppm): Good inhibitory activity
- inhibitory activity for Aspergillus niger (Aspergillus niger [3]; total combined concentration of 1251 ppm, i.e. 751 ppm in the pad and 500 ppm in the film): Good results were achieved for some, but not all, specimens
- zone of inhibition for Staphylococcus aureus (Staphylococcus aureus [4]): two
- growth of Klebsiella pneumoniae underneath and along the sides of the specimen (Klebsiella pneumoniae [5]; all unwashed and washed foam side specimens with 1096 ppm or more of zinc pyrithione): inhibited the growth
- zone of inhibition for Klebsiella pneumoniae (Klebsiella pneumoniae [5]; unwashed foam side specimen with 751 ppm of zinc pyrithione): one
- Aspergillus niger mold colonization (Aspergillus niger [6]): No Aspergillus niger mold colonization was observed
- fungus growth (Aspergillus niger) (Aspergillus niger [7]; washed and unwashed film side samples, 1500 ppm or greater of zinc pyrithione in the film): No growth was observed
- fungus growth (Aspergillus niger) (Aspergillus niger [7]; washed and unwashed foam side samples, 1096 ppm of zinc pyrithione in the pad): no observable fungus growth
